PMC7277387, “Tailoring Uptake Efficacy of HSV-1 gD Tailoring Uptake Efficacy of Hsv-1 GD Derived Carrier Peptides” (Biomolecules, 2020)

Experiments:
[1] = Secondary structure of acetylated peptides by far-UV ECD spectroscopy; format: physicochemical; conditions: acetylated peptide; for α-helix fraction (PEPFIT): far-UV ECD, PEPFIT fit
Experimental: ECD spectra of acetylated HSV peptides were recorded using a Jasco J-810 and Jasco J-715 spectropolarimeter (Jasco Corporation, Tokyo, Japan) in the λ = 180–270 nm wavelength range using a 0.02 or a 0.1 cm path length quartz cell at room temperature, under constant nitrogen flush with continuous scanning mode. All spectra reported here were obtained as an average of three or five individual scans and corrected with the solvent ECD spectra. The J-810 equipment was calibrated with ammonium α-10-camphor-sulfonate. The samples were dissolved in trifluoroethanol (TFE) (Sigma), distilled water and a 1:1 (v/v) mixture of TFE:water. The solution concentration was in the range of 0.5–0.7 mg/mL (J-810) or ~0.14 mg/mL (J-715) for peptide amides. ECD band intensities are expressed in mean residual molar ellipticity unit. The percentage of the different conformational elements contributing to the ECD spectra was calculated by the MS Excel version of the PEPFIT program developed originally by Reed and Reed. The algorithm estimates the percentage of secondary contents by fitting experimental ECD data to the combination of reference spectra. The best fit is defined by the R^2 value, where an R^2 = 1 corresponds to a perfect match.
The helical content of the peptides in different solvents was also estimated employing the simple equation formulated by Chen and Yang: fH = -([Θ]222 + 2340)/30,300 where fH the fraction of helix and [Θ]222 is the measured mean residual ellipticity at 222 nm. It seems that the helical fractions obtained correlate favourably with the results of the curve fitting procedure (Table 2). […]

[2] = system: SH-SY5Y neuroblastoma cells; experiment: Cellular uptake of Cf-labelled peptides by flow cytometry; conditions: for cellular uptake (in words): Figure S19
[3] = format: physicochemical; conditions: 1 mg/mL in serum-free DMEM, 37 °C, samples at 0, 3, 6 and 24 h, RP-HPLC C18, A220
Experimental: Before the cellular uptake studies the stability of the Cf-labelled synthetic peptides was determined. Peptides were dissolved at 1 mg/mL concentration in serum-free DMEM medium (Lonza, Basel, Switzerland), and incubated at 37 °C for 24 h. Samples for RP-HPLC (Knauer, Berlin, Germany) were taken at 0, 3, 6 and 24 h. Phenomenex Luna C18 column (5 μm, 300 Å, 4.6 mm × 250 mm) (Gen-Lab Ltd., Budapest, Hungary) was applied with a gradient of 0–5 min 5% B eluent elevated to 55% B during 25 min, where eluent A: 0.1% TFA/water, eluent B: 0.1% TFA/acetonitrile–water 80:20 (v/v).
Figure S12. Stability study of (a) Cf-(236-255) and (b) Cf-(228-247), dissolved in DMEM serum free medium and incubated at 37 °C, followed by RP-HPLC. Samples for RP-HPLC (Knauer, Berlin, Germany) were taken at 0, 3, 6 and 24 hrs. Phenomenex Luna C18 column (5 μm, 300 Å, 4.6 mm × 250 mm) was applied with a gradient of 0-5 min 5% eluent B elevated to 55% B during 25 min, where eluent A: 0.1% TFA / water, eluent B: 0.1% TFA / acetonitrile –water 80:20 (v/v). Control: DMEM serum free medium. In case of Cf-(236-255) evaporation during the incubation caused increasing peptide peaks. Both peptides contain oxidation sensitive Trp residue. Cf -(236-255) was stable even after 24 h, the rising intensity of the peak representing the peptide is due to evap oration during the […]
to be stable during this interval. […]

In the case of “^-1 GKYALADASLKMADPNRF^19 [acetylated HSV-1 gD -1–19 peptide amide for ECD]”, the “disordered fraction (PEPFIT)” value ([1]; H2O) is reported as 64%, the “turn fraction (PEPFIT)” value ([1]; H2O) is reported as 24% and the “β-sheet fraction (PEPFIT)” value ([1]; H2O) is reported as 4%. The “α-helix fraction (PEPFIT)” value ([1]; H2O, room temperature) was 8%, the “disordered fraction (PEPFIT)” value ([1]; H2O:TFE 1:1 (v/v)) was 10% and the “turn fraction (PEPFIT)” value ([1]; H2O:TFE 1:1 (v/v)) was 40%. For the same molecule, the “β-sheet fraction (PEPFIT)” value ([1]; H2O:TFE 1:1 (v/v)) was 0%, the “α-helix fraction (PEPFIT)” value ([1]; H2O:TFE 1:1 (v/v)) was 50% and the “disordered fraction (PEPFIT)” value ([1]; TFE) was 0%. For the same molecule, the “turn fraction (PEPFIT)” value ([1]; TFE) was 30%, the “β-sheet fraction (PEPFIT)” value ([1]; TFE) was 0% and the “α-helix fraction (PEPFIT)” value ([1]; TFE) was 70%.

With Cf-TKPKGTKPKG [OT10] the “cellular uptake (in words)” value ([2]; c = 10 µM, compared with Cf-HSV peptides) was “did not reach the level of internalisation of HSV peptides even with moderate uptake level” and the “cellular uptake (in words)” value ([2]; c = 50 µM) was “effective cellular uptake, though not reaching 100%”.

With CC[C@H](C)[C@H](NC(=O)[C@H](CCCCN)NC(=O)[C@H](CC(C)C)NC(=O)[C@H](CO)NC(=O)[C@H](Cc1ccc(O)cc1)NC(=O)[C@@H](NC(=O)[C@H](C)NC(=O)[C@@H](NC(=O)[C@@H](NC(=O)[C@H](CCCNC(=N)N)NC(=O)[C@H](CCC(N)=O)NC(=O)c1ccc2c(c1)C(=O)OC21c2ccc(O)cc2Oc2cc(O)ccc21)[C@@H](C)O)C(C)C)C(C)C)C(=O)N[C@@H](C)C(=O)NCC(=O)N[C@@H](Cc1c[nH]c2ccccc12)C(=O)N[C@@H](Cc1c[nH]cn1)C(=O)NCC(=O)N1CCC[C@H]1C(=O)N[C@@H](CCCCN)C(=O)N[C@@H](C)C(=O)N1CCC[C@H]1C(N)=O [Cf-(228–247)] the “stability of the intact peptide” value [3] was “decreased intensity of the intact peptide”.

For “Cf-^219M*LPRFIPENQRTVAVYSLKI^238 [Cf-(219–238)]”, the “percentage of Cf-positive live cells” value ([2]; c = 2 μM, 3 h) was 15–20%.

With CC[C@H](C)[C@H](NC(=O)[C@H](CCCCN)NC(=O)[C@H](CC(C)C)NC(=O)c1ccc2c(c1)C(=O)OC21c2ccc(O)cc2Oc2cc(O)ccc21)C(=O)N[C@@H](C)C(=O)NCC(=O)N[C@@H](Cc1c[nH]c2ccccc12)C(=O)N[C@@H](Cc1c[nH]cn1)C(=O)NCC(=O)N1CCC[C@H]1C(=O)N[C@@H](CCCCN)C(=O)N[C@@H](C)C(=O)N1CCC[C@H]1C(=O)N[C@@H](Cc1ccc(O)cc1)C(=O)N[C@H](C(=O)N[C@@H](CO)C(=O)N[C@H](C(=O)N[C@@H](CC(C)C)C(=O)N[C@@H](CC(C)C)C(=O)N1CCC[C@H]1C(=O)N1CCC[C@H]1C(N)=O)[C@@H](C)O)[C@@H](C)O [Cf-(236–255)] the “stability of the intact peptide” value [3] was “stable even”.
